Experimental data published in patent publication US11053204B2, “Pyrimidinyloxy benzene derivatives as herbicides” (FMC Corporation, priority 2015, dated 2021).

How the values were obtained:
Assay type in all cases: in vivo
[1] = test system: Italian ryegrass (Lolium multiflorum); test: Test A preemergence, visual injury rating
How it was run: (§1)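 Compounds in non-phytotoxic solvent with surfactant applied as soil spray preemergence, or postemergence to plants 2-10 cm at one- to two-leaf stage, in loam/sand. After approximately 10 days in greenhouse, injury rated visually versus untreated controls, 0 (no effect) to 100 (complete control).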

[2] = test system: barnyardgrass (Echinochloa crus-galli); test: Test A preemergence, visual injury rating
How it was run: as §1

[3] = test system: giant foxtail (Setaria faberii); test: Test A preemergence, visual injury rating
How it was run: as §1

kochia (Kochia scoparia) [4] = test: Test A preemergence, visual injury rating
How it was run: as §1

[5] = test system: pigweed (Amaranthus retroflexus); test: Test A preemergence, visual injury rating
How it was run: as §1

[6] = test system: ragweed (common ragweed, Ambrosia elatior); test: Test A preemergence, visual injury rating
How it was run: as §1

[7] = test system: Italian ryegrass (Lolium multiflorum); test: Test A postemergence, visual injury rating
How it was run: as §1

[8] = test system: barnyardgrass (Echinochloa crus-galli); test: Test A postemergence, visual injury rating
How it was run: as §1

[9] = test system: blackgrass (Alopecurus myosuroides); test: Test A postemergence, visual injury rating
How it was run: as §1

corn (Zea mays) = test: Test A postemergence, visual injury rating
How it was run: as §1

[10] = test system: galium (catchweed bedstraw, Galium aparine); test: Test A postemergence, visual injury rating
How it was run: as §1

[11] = test system: giant foxtail (Setaria faberii); test: Test A postemergence, visual injury rating
How it was run: as §1

kochia (Kochia scoparia) [12] = test: Test A postemergence, visual injury rating
How it was run: as §1

[13] = test system: pigweed (Amaranthus retroflexus); test: Test A postemergence, visual injury rating
How it was run: as §1

[14] = test system: ragweed (common ragweed, Ambrosia elatior); test: Test A postemergence, visual injury rating
How it was run: as §1

[15] = test system: wheat (Triticum aestivum); test: Test A postemergence, visual injury rating
How it was run: as §1

[16] = test system: barnyardgrass (Echinochloa crus-galli); test: Test B flooded paddy test, plant response rating; conditions: 250 g ai/ha; Flood; scale of 0 to 100 where 0 is no effect and 100 is complete control; 13 to 15 days
How it was run: (§2)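 Under a constant 3 cm flood, test compounds went directly into the paddy water. Following 13 to 15 days of greenhouse growth, treated species and controls were compared by eye.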

[17] = test system: ducksalad (Heteranthera limosa); test: Test B flooded paddy test, plant response rating; conditions: 250 g ai/ha; Flood; scale of 0 to 100 where 0 is no effect and 100 is complete control; 13 to 15 days
How it was run: as §2

rice (Oryza sativa) = test: Test B flooded paddy test, plant response rating; conditions: 250 g ai/ha; Flood; scale of 0 to 100 where 0 is no effect and 100 is complete control; 13 to 15 days
How it was run: as §2

[18] = test system: sedge, umbrella (small-flower umbrella sedge, Cyperus difformis); test: Test B flooded paddy test, plant response rating; conditions: 250 g ai/ha; Flood; scale of 0 to 100 where 0 is no effect and 100 is complete control; 13 to 15 days
How it was run: as §2

[19] = 31 g ai/ha, 0 to 100 scale, 0 no effect, 100 complete control
[20] = 125 g ai/ha, 0 to 100 scale (0 no effect, 100 complete control)
[21] = 31 g ai/ha, 0 to 100 scale (0 no effect, 100 complete control)
[22] = 125 g ai/ha, 0 to 100 scale, 0 is no effect, 100 is complete control, approximately 10 days
[23] = 31 g ai/ha, 0 to 100 scale, 0 is no effect, 100 is complete control, approximately 10 days
[24] = 125 g ai/ha, 0 is no effect, 100 is complete control
[25] = 500 g ai/ha, 0 to 100 scale (0 no effect, 100 complete control)
[26] = 500 g ai/ha, 0 is no effect, 100 is complete control

N#Cc1cccc(Oc2ncc(Cl)cn2)c1NCCCC(F)(F)F [Compound 146]
70: Ryegrass, Italian plant response rating [7, 22] | Galium plant response rating [10, 21] | Kochia plant response rating (kochia (Kochia scoparia) [12]; [21]) | Pigweed plant response rating [13, 22]
35: Plant response rating, Rice (rice (Oryza sativa))
30: Barnyardgrass plant response rating [8, 21] | Blackgrass plant response rating [9, 21] | Foxtail, Giant plant response rating [11, 21] | Ragweed plant response rating [14, 22]
80: Plant response rating, Foxtail, Giant [3, 19] | Plant response rating, Kochia (kochia (Kochia scoparia) [4]; [20]) | Corn plant response rating (corn (Zea mays); [22])
0: Plant response rating, Ryegrass, Italian [1, 19] | Plant response rating, Ragweed [6, 19] | Plant response rating, Ragweed [6, 20] | Ryegrass, Italian plant response rating [7, 21] | Ragweed plant response rating [14, 21]
100: Plant response rating, Barnyardgrass [2, 20] | Plant response rating, Foxtail, Giant [3, 20] | Plant response rating, Pigweed [5, 20] | Galium plant response rating [10, 22] | Kochia plant response rating (kochia (Kochia scoparia) [12]; [22]) | Plant response rating, Ducksalad [17]
85: Plant response rating, Sedge, Umbrella [18]
60: Plant response rating, Kochia (kochia (Kochia scoparia) [4]; [19]) | Plant response rating, Pigweed [5, 19] | Pigweed plant response rating [13, 21]
20: Plant response rating, Barnyardgrass [2, 19] | Corn plant response rating (corn (Zea mays); [21]) | Wheat plant response rating [15, 21] | Wheat plant response rating [15, 22]
40: Plant response rating, Barnyardgrass [16]
90: Barnyardgrass plant response rating [8, 22] | Blackgrass plant response rating [9, 22] | Foxtail, Giant plant response rating [11, 22]
50: Plant response rating, Ryegrass, Italian [1, 20]

FC(F)(F)CCCOCc1c(Br)cccc1Oc1ncc(Cl)cn1 [Compound 74]
100: Foxtail, Giant plant response rating [3, 20] | Kochia plant response rating (kochia (Kochia scoparia) [4]; [20]) | Pigweed plant response rating [13, 22] | Plant response rating, Ducksalad [17] | Plant response rating, Sedge, Umbrella [18]
70: Foxtail, Giant plant response rating (0 to 100 scale) [11, 24]
80: Galium plant response rating (0 to 100 scale) [10, 24]
30: Blackgrass plant response rating (0 to 100 scale) [9, 24]
0: Plant response rating, Ryegrass, Italian [1, 19] | Plant response rating, Kochia (kochia (Kochia scoparia) [4]; [19]) | Plant response rating, Ragweed [6, 19] | Ragweed plant response rating [6, 20] | Ryegrass, Italian plant response rating [7, 23] | Ragweed plant response rating [14, 23] | Wheat plant response rating [15, 23] | Plant response rating, Rice (rice (Oryza sativa))
90: Pigweed plant response rating [5, 20]
40: Plant response rating, Foxtail, Giant [3, 19] | Barnyardgrass plant response rating (0 to 100 scale) [8, 24] | Kochia plant response rating (kochia (Kochia scoparia) [12]; [22]) | Plant response rating, Barnyardgrass [16]
20: Ryegrass, Italian plant response rating [1, 20] | Plant response rating, Pigweed [5, 19] | Ryegrass, Italian plant response rating [7, 22] | Corn plant response rating (0 to 100 scale) (corn (Zea mays); [24]) | Galium plant response rating [10, 23] | Foxtail, Giant plant response rating [11, 23] | Kochia plant response rating (kochia (Kochia scoparia) [12]; [23])
60: Barnyardgrass plant response rating [2, 20] | Pigweed plant response rating [13, 23]
10: Plant response rating, Barnyardgrass [2, 19] | Barnyardgrass plant response rating [8, 23] | Blackgrass plant response rating [9, 23] | Corn plant response rating (corn (Zea mays); [23]) | Ragweed plant response rating [14, 22] | Wheat plant response rating [15, 22]

O=Cc1c(Cl)cccc1Oc1ncc(Cl)cn1 [Compound 139]
0: Plant response rating, Ryegrass, Italian [1, 20] | Ryegrass, Italian plant response rating [1, 25] | Plant response rating, Barnyardgrass [2, 20] | Barnyardgrass plant response rating [2, 25] | Plant response rating, Foxtail, Giant [3, 20] | Foxtail, Giant plant response rating [3, 25] | Plant response rating, Kochia (kochia (Kochia scoparia) [4]; [20]) | Kochia plant response rating (kochia (Kochia scoparia) [4]; [25]) | Plant response rating, Pigweed [5, 20] | Pigweed plant response rating [5, 25] | Ragweed plant response rating [6, 25] | Ryegrass, Italian plant response rating [7, 22] | Barnyardgrass plant response rating [8, 22] | Barnyardgrass plant response rating (0 to 100 scale) [8, 26] | Blackgrass plant response rating [9, 22] | Blackgrass plant response rating (0 to 100 scale) [9, 26] | Corn plant response rating (corn (Zea mays); [22]) | Corn plant response rating (0 to 100 scale) (corn (Zea mays); [26]) | Galium plant response rating [10, 22] | Galium plant response rating (0 to 100 scale) [10, 26] | Foxtail, Giant plant response rating [11, 22] | Foxtail, Giant plant response rating (0 to 100 scale) [11, 26] | Kochia plant response rating (kochia (Kochia scoparia) [12]; [22]) | Kochia plant response rating (0 to 100 scale) (kochia (Kochia scoparia) [12]; [26]) | Pigweed plant response rating [13, 22] | Pigweed plant response rating (0 to 100 scale) [13, 26] | Ragweed plant response rating [14, 22] | Ragweed plant response rating (0 to 100 scale) [14, 26] | Wheat plant response rating [15, 22] | Wheat plant response rating (0 to 100 scale) [15, 26] | Plant response rating, Barnyardgrass [16] | Plant response rating, Rice (rice (Oryza sativa)) | Plant response rating, Sedge, Umbrella [18]
20: Ryegrass, Italian plant response rating (0 to 100 scale) [7, 26]
30: Plant response rating, Ducksalad [17]
50: Plant response rating, Ragweed [6, 20]
